37 compounds from patent US20080287398A1, “COLD MENTHOL RECEPTOR-1 ANTAGONISTS” (priority 2007, published 2008) can be followed below.

pIC50: −log10 of the molar value. Where “and” joins values, the source holds several entries; their conditions need not be identical. Equal values may be shown once. Read-outs that look alike come from different tables or passages of the source.

This test concerns the target T1, canine TRPM8 (Canis lupus familiaris, UniProt Q1A7N1).
T1 construct: expressed in transfected cells
Description: In vitro canine TRPM8 functional assay (Ca2+-sensitive dye, FLIPR/FDSS, icilin activation). It counts as cell-based. Conditions: HEK293 cells expressing canine TRPM8, icilin activation; for % I (0.5 μM): 0.5 μM compound; for pIC50: read-out: IC50. As for the experimental part: The functional activity of compounds of Formula (I) was determined by measuring changes in intracellular calcium concentration using a Ca^2+-sensitive fluorescent dye. The changes in fluorescent signal were monitored by a fluorescence plate reader, either a FLIPR™ (Molecular Devices) or FDSS (Hamamatsu).
HEK293 cells stably expressing canine TRPM8 were routinely grown as monolayers in Dulbecco's minimum essential medium supplemented with 10% FBS, 1 mM L-glutamine, 100 units/mL penicillin, 100 ug/mL streptomycin and 400 μg/mL G418. Cells were maintained in 5% CO2 at 37° C. At 24 hrs prior to assay, cells were seeded in clear-base poly-D-lysine coated 384-well plates (BD Biosciences, NJ, USA) at a density of 5,000 cells per well in culture medium and grown overnight in 5% CO2 at 37° C. On assay day, growth media was removed and cells were loaded with Calcium 3 Dye (Molecular Devices) for 35 min at 37° C., under 5% CO2 and then for 25 min at room temperature and atmosphere. Subsequently, cells were tested for agonist-induced increases in intracellular Ca^2+ levels using FLIPR™ or FDSS. Cells were challenged with a compound of Formula (I) (at varying concentrations) and intracellular Ca^2+ was measured for 5 min prior to the addition of icilin to all wells to achieve a final concentration which produces approximately an 80% maximal response.
Basal FI was subtracted prior to normalizing data to percent of maximal response. Curves were generated using the average of quadruplicate wells for each data point, were analyzed using nonlinear regression of either sigmoidal dose response or sigmoidal dose response (variable slope). Finally, the EC50 and IC50 values were calculated with the best-fit dose curve determined by GraphPad Prism.

A word on the pIC50: it is the negative decadic logarithm of the IC50, by convention in mol/L. For orientation: IC50 means the point on the concentration scale where inhibition reaches its midpoint. A high value points to lower potency.

T1 sequence (Q1A7N1 1-1104): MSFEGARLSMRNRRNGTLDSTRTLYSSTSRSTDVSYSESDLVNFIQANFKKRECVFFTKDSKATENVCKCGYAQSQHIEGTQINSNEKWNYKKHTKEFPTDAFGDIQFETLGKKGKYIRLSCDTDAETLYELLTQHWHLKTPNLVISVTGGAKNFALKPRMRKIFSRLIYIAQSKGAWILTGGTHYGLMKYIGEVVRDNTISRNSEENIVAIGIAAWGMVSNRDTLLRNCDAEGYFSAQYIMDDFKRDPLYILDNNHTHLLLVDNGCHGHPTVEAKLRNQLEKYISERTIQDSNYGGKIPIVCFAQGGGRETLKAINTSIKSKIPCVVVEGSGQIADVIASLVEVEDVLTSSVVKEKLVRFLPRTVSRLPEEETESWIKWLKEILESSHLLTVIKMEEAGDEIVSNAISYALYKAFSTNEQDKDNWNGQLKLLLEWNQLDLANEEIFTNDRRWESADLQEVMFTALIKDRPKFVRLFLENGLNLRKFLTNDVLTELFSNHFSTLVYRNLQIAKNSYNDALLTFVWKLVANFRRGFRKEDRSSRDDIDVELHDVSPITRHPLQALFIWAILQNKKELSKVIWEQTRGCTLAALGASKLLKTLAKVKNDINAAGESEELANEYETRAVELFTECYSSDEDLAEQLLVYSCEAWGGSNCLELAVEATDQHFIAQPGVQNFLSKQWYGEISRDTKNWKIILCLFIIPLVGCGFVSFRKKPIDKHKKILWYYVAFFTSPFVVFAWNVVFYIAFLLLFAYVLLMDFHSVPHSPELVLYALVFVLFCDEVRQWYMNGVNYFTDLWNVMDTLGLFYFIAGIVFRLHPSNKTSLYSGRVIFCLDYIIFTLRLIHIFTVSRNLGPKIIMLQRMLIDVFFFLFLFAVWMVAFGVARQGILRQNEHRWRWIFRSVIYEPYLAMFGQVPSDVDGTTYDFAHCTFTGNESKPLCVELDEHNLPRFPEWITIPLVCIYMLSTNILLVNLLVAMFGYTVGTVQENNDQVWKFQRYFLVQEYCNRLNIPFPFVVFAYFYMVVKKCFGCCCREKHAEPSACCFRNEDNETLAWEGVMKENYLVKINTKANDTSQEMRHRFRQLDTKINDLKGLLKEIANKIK

In the case of `CCOP(=O)(OCC)C(Cc1c(F)c(F)c(O)c(F)c1F)c1sc2ccccc2c1Br` (racemic) [Cpd 228], the “% I (0.5 μM)” value was determined as 94%. Also, the pIC50 (eight-point dose-response) was 6.89.

For `CC(C)OP(=O)(OC(C)C)C(Cc1c(F)c(F)c(O)c(F)c1F)c1sc2ccccc2c1Br` (racemic) [Cpd 229], the “% I (0.5 μM)” value amounted to 95%. Also, the pIC50 (eight-point dose-response) was 6.81.

As to `CC(C)OP(=O)(OC(C)C)C(Cc1cccc(O)c1F)c1sc2ccccc2c1Br` (racemic) [Cpd 230], the “% I (0.5 μM)” value turned out to be 97%. Besides, for the setting “eight-point dose-response”, the pIC50 was 8.00.

Take `CCOP(=O)(OCC)C(Cc1cc(O)c(Cl)cc1F)c1sc2ccccc2c1Br` (racemic) [Cpd 231]: the “% I (0.5 μM)” value is listed as 98%. The pIC50 (eight-point dose-response) was 6.91.

As for `CC(C)OP(=O)(OC(C)C)C(Cc1cc(O)c(Cl)cc1F)c1sc2ccccc2c1Br` (racemic) [Cpd 232], the “% I (0.5 μM)” value turned out to be 99%. Also, the pIC50 (eight-point dose-response) is 7.20.

Regarding `CCOP(=O)(OCC)C(Cc1ccc(O)c(C(F)(F)F)c1)c1sc2ccccc2c1Br` (racemic) [Cpd 233], the “% I (0.5 μM)” value amounted to 70%.

As to `CCOP(=O)(OCC)C(Cc1ccc(F)cc1C(F)(F)F)c1sc2ccccc2c1Br` (racemic) [Cpd 245], the “% I (0.5 μM)” value was found to be 103%. Besides, the pIC50 (eight-point dose-response) is 6.91.

In the case of `CCOP(=O)(OCC)C(Cc1ccc(SC)cc1)c1sc2ccccc2c1Br` (racemic) [Cpd 247], the “% I (0.5 μM)” value was 103%. Also, where the note is “eight-point dose-response”, the pIC50 is 6.92.

Turning to `CC(C)OP(=O)(OC(C)C)C(Cc1ccc(F)c(Cl)c1)c1sc2ccccc2c1Br` (racemic) [Cpd 248], the “% I (0.5 μM)” value came out at 104%. Also, the negative logarithm of the IC50 (pIC50) (eight-point dose-response) is 7.68.

`CCOP(=O)(OCC)C(Cc1ccccc1C(F)(F)F)c1sc2ccccc2c1Cl` (racemic) [Cpd 279]: the “% I (0.5 μM)” value was 97%. In addition, the negative logarithm of the IC50 (pIC50) (eight-point dose-response) was 6.54.

Consider `CCOP(=O)(OCC)C(Cc1cccc(C(F)(F)F)c1Cl)c1sc2ccccc2c1Cl` (racemic) [Cpd 280], for which the “% I (0.5 μM)” value worked out at 101%. For the same compound, the pIC50 (eight-point dose-response) was 6.64.

With `CCOP(=O)(OCC)C(Cc1cccc(C(F)(F)F)c1F)c1sc2ccccc2c1Cl` (racemic) [Cpd 281], the “% I (0.5 μM)” value is 102%. Moreover, the negative-log IC50 (pIC50) (eight-point dose-response) was 6.88.

Regarding `CCOP(=O)(OCC)C(Cc1cc(C(F)(F)F)cc(C(F)(F)F)c1)c1sc2ccccc2c1Cl` (racemic) [Cpd 282], the “% I (0.5 μM)” value is 100%. Further, the negative-log IC50 (pIC50) (eight-point dose-response) is 6.63.

In the case of `CCOP(=O)(OCC)C(Cc1ccc(SC(F)(F)F)cc1)c1sc2ccccc2c1Cl` (racemic) [Cpd 283], the “% I (0.5 μM)” value is 103%. Further, the pIC50 (eight-point dose-response) is 6.90.

Regarding `CCOP(=O)(OCC)C(Cc1ccc(F)cc1)c1sc2ccccc2c1Cl` (racemic) [Cpd 284], the “% I (0.5 μM)” value is 103% and 102%. Further, under “eight-point dose-response”, the pIC50 was 7.10 and 7.19.

On to `CCOP(=O)(OCC)C(Cc1ccc(C(F)(F)F)cc1)c1sc2ccccc2c1Cl` (racemic) [Cpd 285], for which the “% I (0.5 μM)” value was 103%. Besides, the negative-log IC50 (pIC50) (eight-point dose-response) is 6.90.

Turning to `CCOP(=O)(OCC)C(Cc1cc(C(F)(F)F)ccc1F)c1sc2ccccc2c1Cl` (racemic) [Cpd 286], the “% I (0.5 μM)” value came to 102%. For the same compound, for the setting “eight-point dose-response”, the pIC50 was 6.90.

In the case of `CCOP(=O)(OCC)C(Cc1ccc(Cl)c(C(F)(F)F)c1)c1sc2ccccc2c1Cl` (racemic) [Cpd 287], the “% I (0.5 μM)” value is reported as 103%. In addition, the pIC50 (eight-point dose-response) was 6.91.

In the case of `CC(C)OP(=O)(OC(C)C)C(Cc1ccc(Cl)cc1)c1sc2ccccc2c1Br` (racemic) [Cpd 288], the “% I (0.5 μM)” value came to 103%. In addition, the pIC50 (eight-point dose-response) was 7.19.

As for `CC(C)OP(=O)(OC(C)C)C(Cc1ccc(C(F)(F)F)cc1F)c1sc2ccccc2c1Br` (racemic) [Cpd 289], the “% I (0.5 μM)” value was 103%. For the same compound, for the setting “eight-point dose-response”, the pIC50 is 7.29.

`CCOP(=O)(OCC)C(Cc1cccc(Cl)c1)c1sc2ccccc2c1Cl` (racemic) [Cpd 290]: the “% I (0.5 μM)” value is on record as 103%. For the same compound, under “eight-point dose-response”, the pIC50 was 6.94.

Regarding `CCOP(=O)(OCC)C(Cc1ccc(C(F)(F)F)cc1F)c1sc2ccccc2c1Cl` (racemic) [Cpd 291], the “% I (0.5 μM)” value came to 103%. Besides, the pIC50 (eight-point dose-response) is 6.81.

For `CCOP(=O)(OCC)C(Cc1ccc(OC)c(C(F)(F)F)c1)c1sc2ccccc2c1Cl` (racemic) [Cpd 292], the “% I (0.5 μM)” value was found to be 99%. Further, the pIC50 (eight-point dose-response) was 6.67.

Consider `CCOP(=O)(OCC)C(Cc1ccc(Cl)cc1)c1sc2ccccc2c1Cl` (racemic) [Cpd 293], for which the “% I (0.5 μM)” value was determined as 103%. The pIC50 (eight-point dose-response) was 6.81.

For the compound `CCOP(=O)(OCC)C(Cc1ccc(F)c(C(F)(F)F)c1)c1sc2ccccc2c1Cl` (racemic) [Cpd 294], the “% I (0.5 μM)” value was 103%. Further, the negative-log IC50 (pIC50) (eight-point dose-response) is 6.93.

For `CCOP(=O)(OCC)C(Cc1cccc(Br)c1)c1sc2ccccc2c1Br` (racemic) [Cpd 295], the “% I (0.5 μM)” value was 102% and 103%. For the same compound, the pIC50 (eight-point dose-response) is 7.51 and 7.80.

On to `CCOP(=O)(OCC)C(Cc1ccc(F)c(Cl)c1)c1sc2ccccc2c1Cl` (racemic) [Cpd 297], for which the “% I (0.5 μM)” value was found to be 103%. Under “eight-point dose-response”, the pIC50 was 7.40.

`CCOP(=O)(OCC)C(Cc1ccc(S(=O)(=O)C(F)(F)F)cc1)c1sc2ccccc2c1Cl` (racemic) [Cpd 300]: the “% I (0.5 μM)” value amounted to 103%. The negative-log IC50 (pIC50) (eight-point dose-response) is 7.05.

Take `CC(C)OP(=O)(OC(C)C)C(Cc1cccc(OC(F)(F)F)c1)c1sc2ccccc2c1Cl` (racemic) [Cpd 301]: the “% I (0.5 μM)” value came to 102%. The pIC50 (eight-point dose-response) is 7.27.

As to `CC(C)OP(=O)(OC(C)C)C(Cc1ccc(Cl)c(F)c1)c1sc2ccccc2c1Cl` (racemic) [Cpd 302], the “% I (0.5 μM)” value is listed as 103%. For the same compound, for the setting “eight-point dose-response”, the pIC50 is 7.10.

Consider `CC(C)OP(=O)(OC(C)C)C(Cc1cc(Cl)ccc1F)c1sc2ccccc2c1Cl` (racemic) [Cpd 303], for which the “% I (0.5 μM)” value is given as 102%. The pIC50 (eight-point dose-response) is 7.31.

Take `CC(C)OP(=O)(OC(C)C)C(Cc1ccc(SC(F)(F)F)cc1)c1sc2ccccc2c1Cl` (racemic) [Cpd 304]: the “% I (0.5 μM)” value stood at 102%. Moreover, the pIC50 (eight-point dose-response) was 7.55.

On to `CCOP(=O)(OCC)C(Cc1cc(Cl)ccc1F)c1sc2ccccc2c1Cl` (racemic) [Cpd 305], for which the “% I (0.5 μM)” value amounted to 102%. Besides, for the setting “eight-point dose-response”, the pIC50 was 7.15.

In the case of `CC(C)OP(=O)(OC(C)C)C(Cc1ccc(F)cc1)c1sc2ccccc2c1Cl` (racemic) [Cpd 306], the “% I (0.5 μM)” value is 101% and 102%.

On to `CCOP(=O)(OCC)C(Cc1cc(Cl)ccc1F)c1sc2ccccc2c1Br` (racemic) [Cpd 307], for which the “% I (0.5 μM)” value turned out to be 103%. In addition, where the note is “eight-point dose-response”, the pIC50 was 7.59.

As for `CC(C)OP(=O)(OC(C)C)C(Cc1cc(Cl)ccc1F)c1sc2ccccc2c1Br` (racemic) [Cpd 308], the “% I (0.5 μM)” value stood at 103%. Moreover, the pIC50 (eight-point dose-response) is 7.77.

Consider `CCOP(=O)(OCC)C(Cc1ccc(F)c(F)c1)c1sc2cccc(F)c2c1C` (stereo not drawn) [Cpd 3, [2-(3,4-Difluoro-phenyl)-1-(4-fluoro-3-methyl-benzo[b]-thiophene-2-yl)-ethyl]-phosphonic acid diethyl ester], for which the inhibition at 1 µM (HEK293, read-out: % I (1 μM), 1 μM compound) came to 100%. For the same compound, the IC50 (IC50 (μM), eight-point dose-response) was 0.012 µM and 0.051 µM.
